One compound from BindingDB's records for doi:10.1021/bi020016x (Weizmann Institute of Science, 2002) can be followed below.

For assay [1], the target named is Acetylcholinesterase (Homo sapiens, UniProt P22303). The assay is described as follows: Enzyme Inhibition Assay. To be noted: pH 7.5; 25 °C. How it is done: (§1) The cholinesterase assays were performed using colorimetric method reported by Ellman. Enzyme activity was determined by measuring the absorbance at 412 nm for 2 min, relative to the drug-free control. Triplicate measurements were carried out at a total of 8 drug concentrations. The IC50 values were determined from a plot of percentage of inhibition vs -log [drug].

For assay [2], the target named is Acetylcholinesterase (Tetronarce californica, UniProt P04058). As to the kind of experiment: Enzyme Inhibition Assay. To be noted: pH 7.5; 25 °C. How it is done: as §1
Sequence of Acetylcholinesterase (Tetronarce californica, UniProt P04058) (P04058 whole entry): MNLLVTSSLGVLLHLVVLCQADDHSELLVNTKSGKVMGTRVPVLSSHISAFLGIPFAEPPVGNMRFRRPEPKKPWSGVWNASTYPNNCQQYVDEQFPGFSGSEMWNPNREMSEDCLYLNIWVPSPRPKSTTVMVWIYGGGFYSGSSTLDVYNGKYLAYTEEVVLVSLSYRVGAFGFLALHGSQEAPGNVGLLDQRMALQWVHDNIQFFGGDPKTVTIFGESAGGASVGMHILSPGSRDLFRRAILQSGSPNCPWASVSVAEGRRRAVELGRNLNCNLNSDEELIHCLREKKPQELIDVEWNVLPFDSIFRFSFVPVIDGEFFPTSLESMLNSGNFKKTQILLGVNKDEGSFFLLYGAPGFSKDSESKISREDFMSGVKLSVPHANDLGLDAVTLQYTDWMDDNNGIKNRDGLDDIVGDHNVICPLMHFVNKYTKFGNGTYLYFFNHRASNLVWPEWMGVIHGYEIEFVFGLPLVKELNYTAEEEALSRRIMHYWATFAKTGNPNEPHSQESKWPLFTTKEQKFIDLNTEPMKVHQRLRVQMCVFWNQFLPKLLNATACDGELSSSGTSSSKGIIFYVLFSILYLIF

Sequence of Acetylcholinesterase (Homo sapiens, UniProt P22303) (P22303 whole entry): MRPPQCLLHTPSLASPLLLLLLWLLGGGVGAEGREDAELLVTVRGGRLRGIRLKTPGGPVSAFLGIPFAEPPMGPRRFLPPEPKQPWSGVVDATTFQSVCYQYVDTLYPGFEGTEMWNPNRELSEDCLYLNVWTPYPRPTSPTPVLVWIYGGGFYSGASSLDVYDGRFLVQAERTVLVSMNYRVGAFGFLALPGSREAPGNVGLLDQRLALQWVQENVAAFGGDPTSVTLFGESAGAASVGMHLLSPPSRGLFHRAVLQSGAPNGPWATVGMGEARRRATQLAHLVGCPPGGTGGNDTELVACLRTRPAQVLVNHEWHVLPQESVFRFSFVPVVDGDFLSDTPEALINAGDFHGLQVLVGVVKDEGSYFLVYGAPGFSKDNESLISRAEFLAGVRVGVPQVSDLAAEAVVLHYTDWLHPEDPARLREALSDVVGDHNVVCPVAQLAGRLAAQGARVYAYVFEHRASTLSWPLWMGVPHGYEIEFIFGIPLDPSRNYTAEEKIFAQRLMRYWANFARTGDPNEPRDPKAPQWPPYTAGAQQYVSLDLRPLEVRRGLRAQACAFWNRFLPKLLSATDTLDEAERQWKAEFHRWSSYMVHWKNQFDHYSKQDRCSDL

Turning to `C[C@@H](c1cccc(O)c1)N(C)C` [3-[1-(dimethylamino)ethyl]phenol], the figures for the Ki at Acetylcholinesterase [1] and at Acetylcholinesterase [2] were 33 µM and 0.7 µM, respectively.
